pEC50: −log10 of the molar value.

The target in the test is T1, MerTK (Homo sapiens, UniProt Q12866).
T1 construct: Seed HUVECs (10K cells/well) in EBM-2 complete media; host or cells: HUVEC (primary human umbilical vein endothelial cells)
T1 sequence (Q12866 21-999): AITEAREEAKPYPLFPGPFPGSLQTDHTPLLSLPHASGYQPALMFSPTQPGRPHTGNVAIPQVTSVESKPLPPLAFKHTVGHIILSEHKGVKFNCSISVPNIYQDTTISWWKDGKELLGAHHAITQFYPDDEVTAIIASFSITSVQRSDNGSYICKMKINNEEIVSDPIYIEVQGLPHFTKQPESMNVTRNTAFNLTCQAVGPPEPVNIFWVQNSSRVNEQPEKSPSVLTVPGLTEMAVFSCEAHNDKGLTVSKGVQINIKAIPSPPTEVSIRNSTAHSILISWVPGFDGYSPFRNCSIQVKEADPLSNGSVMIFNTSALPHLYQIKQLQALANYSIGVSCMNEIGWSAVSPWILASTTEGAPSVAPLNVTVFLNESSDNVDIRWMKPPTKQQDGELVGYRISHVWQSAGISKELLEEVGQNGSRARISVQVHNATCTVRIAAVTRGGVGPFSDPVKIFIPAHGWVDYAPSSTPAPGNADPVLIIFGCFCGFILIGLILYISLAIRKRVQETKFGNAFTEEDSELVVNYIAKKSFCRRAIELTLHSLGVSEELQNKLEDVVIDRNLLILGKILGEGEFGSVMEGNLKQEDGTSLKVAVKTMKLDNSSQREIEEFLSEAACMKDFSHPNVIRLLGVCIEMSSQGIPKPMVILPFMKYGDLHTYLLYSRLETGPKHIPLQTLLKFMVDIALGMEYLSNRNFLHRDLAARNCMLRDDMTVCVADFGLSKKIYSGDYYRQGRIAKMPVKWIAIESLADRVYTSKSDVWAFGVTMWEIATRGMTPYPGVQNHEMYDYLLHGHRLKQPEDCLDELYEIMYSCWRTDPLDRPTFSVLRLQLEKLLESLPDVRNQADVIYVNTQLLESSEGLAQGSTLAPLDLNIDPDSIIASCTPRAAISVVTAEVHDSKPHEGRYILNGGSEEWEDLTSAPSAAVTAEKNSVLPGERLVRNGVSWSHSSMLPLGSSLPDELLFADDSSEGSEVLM
In words: PAKT HTRF-HUVEC assay (pAkt Ser473 HTRF after anti-human MerTK-XL stimulation). It is filed as cell-based. The settings on record: HUVEC cells, 1 hour compound, stimulated with anti-human MerTK-XL 1 ug/mL for 10 minutes, read-out: inhibition of MerTK. Put shortly:
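Akt Ser473 phosphorylation measured by HTRF in lysates of serum-starved HUVECs. Cells received compound for 1 h at 37° C before a 10-min challenge with antibody-cross-linked anti-MerTK (1 ug/mL final); EC50 derived by curve fit.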
Consider `CCCCNc1ncc2c3ccc(CN4CCN(C)CC4)cc3c(=O)n([C@H]3CC[C@H](C(=O)NCC4CC4)CC3)c2n1` [Compound 141, trans-4-(3-(Butylamino)-8-((4-methylpiperazin-1-yl)methyl)-6-oxopyrimido[4,5-c]isoquinolin-5(6H)-yl)-N-(cyclopropylmethyl)cyclohexane-1-carboxamide], for which the pEC50 was 6.73.
For `CCCCNc1ncc2c3ccc(CN4CCN(C)CC4)cc3c(=O)n([C@H]3CC[C@H](C(=O)N(C)C)CC3)c2n1` [Compound 142, trans-4-(3-(Butylamino)-8-((4-methylpiperazin-1-yl)methyl)-6-oxopyrimido[4,5-c]isoquinolin-5(6H)-yl)-N,N-dimethylcyclohexane-1-carboxamide], the pEC50 was 6.94.
Next, `O=c1c2cc(CN3CCC(c4nnn[nH]4)CC3)ccc2c2cnc(NCC3CC3)nc2n1C1CCC(O)CC1` (centres unmarked) [Compound 143, 8-((4-(1H-tetrazol-5-yl)piperidin-1-yl)methyl)-3-((cyclopropylmethyl)amino)-5-((1s,4s)-4-hydroxycyclohexyl)pyrimido[4,5-c]isoquinolin-6(5H)-one]: 4.87; `CCOC1CCN(Cc2ccc3c(c2)c(=O)n(C2CCC(O)CC2)c2nc(NCC4CC4)ncc32)CC1` (centres unmarked) [Compound 144, 3-((cyclopropylmethyl)amino)-8-((4-ethoxypiperidin-1-yl)methyl)-5-((1s,4s)-4-hydroxycyclohexyl)pyrimido[4,5-c]isoquinolin-6(5H)-one]: 7.24.
Consider `CC1(O)CCN(Cc2ccc3c(c2)c(=O)n(C2CCC(O)CC2)c2nc(NCC4CC4)ncc32)CC1` (centres unmarked) [Compound 145, 3-((cyclopropylmethyl)amino)-8-((4-hydroxy-4-methylpiperidin-1-yl)methyl)-5-((1s,4s)-4-hydroxycyclohexyl)pyrimido[4,5-c]isoquinolin-6(5H)-one], for which the pEC50 is 7.59.
As for `CN1CCN(Cc2ccc3c(c2)c(=O)n(C2CCC(C)(C)CC2)c2nc(NCC4CCC4)ncc32)CC1` [Compound 146], the pEC50 is 8.13.
The figure for `O=c1c2cc(CN3CCN(C4COC4)CC3)ccc2c2cnc(NCC3CC3)nc2n1[C@H]1CC[C@H](O)CC1` [Compound 147] is 7.33.
The figure for `CC1(O)CCC(n2c(=O)c3cc(CN4CCN(C5COC5)CC4)ccc3c3cnc(NCC4CC4)nc32)CC1` (centres unmarked) [Compound 148] is 7.77; for `O=c1c2cc(CN3CCC(N4CCCC4)CC3)ccc2c2cnc(NCC3CC3)nc2n1[C@H]1CC[C@H](O)CC1` [Compound 149] it is 7.27.
Next, `CC1(O)CCC(n2c(=O)c3cc(CN4CCC(N5CCCC5)CC4)ccc3c3cnc(NCC4CC4)nc32)CC1` (centres unmarked) [Compound 150]: 7.48.
With `O=c1c2cc(CN3CCn4ncnc4C3)ccc2c2cnc(NCC3CC3)nc2n1[C@H]1CC[C@H](O)CC1` [Compound 151], the pEC50 was 7.19.
The figure for `O=c1c2cc(CN3CCN(CC(F)(F)F)CC3)ccc2c2cnc(NCC3CC3)nc2n1[C@H]1CC[C@H](O)CC1` [Compound 152] is 7.29.
The figure for `O=c1c2cc(CN3CCN(CC(F)F)CC3)ccc2c2cnc(NCC3CC3)nc2n1[C@H]1CC[C@H](O)CC1` [Compound 153] is 7.29; for `CCCCNc1ncc2c3ccc(CN4CCNCC4)cc3c(=O)n([C@H]3CC[C@H](O)CC3)c2n1` [Compound 154] it is 7.18.
Next, `O=c1c2cc(CN3CCOCC3)ccc2c2cnc(NCC3CC3)nc2n1[C@H]1CC[C@H](O)CC1` [Compound 155]: 6.83; `CC1(O)CCC(n2c(=O)c3cc(CN4CCOCC4)ccc3c3cnc(NCC4CC4)nc32)CC1` (centres unmarked) [Compound 156]: 6.93; `O=c1c2cc(CN3CCN4CCC[C@H]4C3)ccc2c2cnc(NCC3CC3)nc2n1[C@H]1CC[C@H](O)CC1` [Compound 157]: 7.30.
For `O=c1c2cc(N3CCC(N4CCCC4)CC3)ccc2c2cnc(NCC3CC3)nc2n1[C@H]1CC[C@H](O)CC1` [Compound 158], the pEC50 was 7.02.
As for `O=c1c2cc(CN3CCN4CCC[C@@H]4C3)ccc2c2cnc(NCC3CC3)nc2n1[C@H]1CC[C@H](O)CC1` [Compound 159], the pEC50 is 7.31.
As to `O=c1c2cc(CN3CCS(=O)(=O)CC3)ccc2c2cnc(NCC3CC3)nc2n1[C@H]1CC[C@H](O)CC1` [Compound 160], the pEC50 was 6.66.
With `CCOC(=O)C1CCN(Cc2ccc3c(c2)c(=O)n(C2CCC(O)CC2)c2nc(NCC4CC4)ncc32)CC1` (centres unmarked) [Compound 161], the pEC50 is 7.59.
`O=c1c2cc(CN3CC[N+]4([O-])CCC3CC4)ccc2c2cnc(NCC3CC3)nc2n1[C@H]1CC[C@H](O)CC1` [Compound 162]: the pEC50 is 4.92.
Next, `O=c1c2cc(N3CCN4CCC3CC4)ccc2c2cnc(NCC3CC3)nc2n1C1CCC(O)CC1` (centres unmarked) [Compound 163]: 6.95; `O=c1c2cc(N3CCn4ncnc4C3)ccc2c2cnc(NCC3CC3)nc2n1[C@H]1CC[C@H](O)CC1` [Compound 164]: 6.53.
Take `O=c1c2cc(CN3CC[S+]([O-])CC3)ccc2c2cnc(NCC3CC3)nc2n1[C@H]1CC[C@H](O)CC1` [Compound 165]: the pEC50 was 6.40.
On to `O=c1c2cc(N3CCN(CC(F)(F)F)CC3)ccc2c2cnc(NCC3CC3)nc2n1[C@H]1CC[C@H](O)CC1` [Compound 168], for which the pEC50 was 6.54.
On to `O=c1c2cc(N3CCN(CC(F)F)CC3)ccc2c2cnc(NCC3CC3)nc2n1[C@H]1CC[C@H](O)CC1` [Compound 169], for which the pEC50 was 6.45.
The figure for `O=c1c2cc(CN3CCSCC3)ccc2c2cnc(NCC3CC3)nc2n1[C@H]1CC[C@H](O)CC1` [Compound 170] is 7.44; for `O=c1c2cc(CN3CCNCC3)ccc2c2cnc(NCC3CC3)nc2n1[C@H]1CC[C@H](O)CC1` [Compound 171] it is 6.51.
Next, `O=c1c2cc(N3CCNCC3)ccc2c2cnc(NCC3CC3)nc2n1[C@H]1CC[C@H](O)CC1` [Compound 174]: 6.77; `C[C@@H]1CN(Cc2ccc3c(c2)c(=O)n([C@H]2CC[C@H](O)CC2)c2nc(NCC4CC4)ncc32)CCN1C` [Compound 175]: 7.44; `CC(C)N1CCN(c2ccc3c(c2)c(=O)n([C@H]2CC[C@H](O)CC2)c2nc(NCC4CC4)ncc32)CC1` [Compound 176]: 7.01.
The figure for `O=c1c2cc(N3CCN(C4CC4)CC3)ccc2c2cnc(NCC3CC3)nc2n1[C@H]1CC[C@H](O)CC1` [Compound 177] is 6.32.
Take `O=c1c2cc(N3CCN(C4COC4)CC3)ccc2c2cnc(NCC3CC3)nc2n1[C@H]1CC[C@H](O)CC1` [Compound 178]: the pEC50 was 6.42.
On to `O=c1c2cc(CN3CCN4CCC3CC4)ccc2c2cnc(NCC3CC3)nc2n1[C@H]1CC[C@H](O)CC1` [Compound 179], for which the pEC50 was 6.94.
As to `CN1CCN(Cc2ccc3c(c2)c(=O)n([C@H]2CC[C@H](OC(N)=O)CC2)c2nc(NCC4CC4)ncc32)CC1` [Compound 181], the pEC50 is 6.53.
As to `CC(C)(C)N1CCN(Cc2ccc3c(c2)c(=O)n([C@H]2CC[C@H](O)CC2)c2nc(NCC4CC4)ncc32)CC1` [Compound 182], the pEC50 was 8.12.
The figure for `CN1CCN(Cc2ccc3c(c2)c(=O)n([C@H]2CC[C@H](OC(N)=O)CC2)c2nc(N(CC4CC4)C(N)=O)ncc32)CC1` [Compound 183] is 4.86; for `CN1CCN(Cc2ccc3c(c2)c(=O)n([C@H]2CC[C@H](NC(=O)OC(C)(C)C)CC2)c2nc(NCC4CC4)ncc32)CC1` [Compound 184, trans-tert-Butyl (4-(3-((cyclopropylmethyl)amino)-8-((4-methylpiperazin-1-yl)methyl)-6-oxopyrimido[4,5-c]isoquinolin-5(6H)-yl)cyclohexyl)carbamate] it is 5.29.
As to `CN1CCN(Cc2ccc3c(c2)c(=O)n([C@H]2CC[C@H](N)CC2)c2nc(NCC4CC4)ncc32)CC1` [Compound 185, trans-5-(4-aminocyclohexyl)-3-((cyclopropylmethyl)amino)-8-((4-methylpiperazin-1-yl)methyl)pyrimido[4,5-c]isoquinolin-6(5H)-one], the pEC50 was 7.54.
The figure for `O=c1c2cc(CN3CCC4(CC3)COC4)ccc2c2cnc(NCC3CC3)nc2n1[C@H]1CC[C@H](O)CC1` [Compound 186, trans-8-((2-Oxa-7-azaspiro[3.5]nonan-7-yl)methyl)-3-((cyclopropylmethyl)amino)-5-(4-hydroxycyclohexyl)pyrimido[4,5-c]isoquinolin-6(5H)-one] is 7.34.

Source of the values: patent publication US11110082B2, “Tyrosine kinase inhibitors” (Rigel Pharmaceuticals, Inc., priority 2016, dated 2021).
